The target of the assay is T1, cynomolgus BK1-receptor (Macaca fascicularis, UniProt Q3BCU0).
T1 construct: expressed in transfected cells; host or cells: CHO cells (homogenate)
T1 sequence (Q3BCU0 1-352): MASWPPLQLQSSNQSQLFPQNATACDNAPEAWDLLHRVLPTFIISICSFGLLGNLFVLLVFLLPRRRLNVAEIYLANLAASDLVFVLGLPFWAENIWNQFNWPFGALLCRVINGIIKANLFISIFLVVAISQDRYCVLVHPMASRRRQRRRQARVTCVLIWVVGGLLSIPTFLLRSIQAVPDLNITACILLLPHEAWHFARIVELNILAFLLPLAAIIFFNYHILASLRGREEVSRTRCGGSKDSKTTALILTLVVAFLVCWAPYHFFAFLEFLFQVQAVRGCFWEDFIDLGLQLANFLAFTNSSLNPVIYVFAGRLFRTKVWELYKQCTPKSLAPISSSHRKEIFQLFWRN
Briefly: cynoBK1-receptor binding assay. Conditions: CHO cells expressing cynomolgus BK1-receptor, radioligand kallidine (DesArg10,Leu9). The gist of the method: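 Radioligand competition on homogenates of CHO cells expressing cynomolgus BK1 receptor (50 to 250 μg protein/assay), incubated 60-180 minutes at ambient temperature with 0.5 to 5.0 nM [3H]kallidine (DesArg10,Leu9) plus increasing test compound. Filtration binding; non-specific defined with 1.0 μM kallidine (DesArg10); Ki from non-linear curve fitting.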
As usually defined, the Ki is the equilibrium dissociation constant of an inhibitor or competing ligand from its target. A lower Ki goes with higher affinity. The compound `Cc1ncc(C(=O)N[C@@]2(C(=O)NCc3ncc(Nc4ccccc4C(F)(F)F)cc3Cl)CCOC2)cn1` [(292)] gave a Ki of 7.2 nM. For the compound `Nc1ccc(C(=O)N[C@@]2(C(=O)NCc3ncc(Nc4ccc(Cl)cc4C(F)(F)F)cc3F)CCOC2)cn1` [(293)], the Ki is 65 nM. Turning to `Cc1ncc(C(=O)NC2(C(=O)NCc3ccc(Nc4ccccc4C(F)(F)F)cc3F)CC2)cn1` [(294)], the Ki is 1.2 nM. To `N#Cc1ccccc1Nc1cnc(CNC(=O)C2(NC(=O)c3cncnc3)CC2)c(F)c1` [(295)] belongs 31 nM; to `N#Cc1ccccc1Nc1ccc(CNC(=O)C2(NC(=O)c3cncnc3)CC2)c(F)c1` [(296)], 28 nM. In the case of `Nc1ccc(C(=O)N[C@@]2(C(=O)NCc3ncc(Nc4ccc(Cl)cc4C(F)(F)F)cc3Cl)CCOC2)cn1` [(297)], the Ki was found to be 59 nM.

Regarding `Cc1ncc(C(=O)NC2(C(=O)NCc3ncc(Nc4ccc(F)cc4C(F)(F)F)cc3F)CC2)cn1` [(298)], the inhibitory constant (Ki) was 0.7 nM. As to `O=C(N[C@@]1(C(=O)NCc2ccc(Nc3ccc(F)cc3C(F)(F)F)cc2)CCOC1)c1cncs1` [(299)], the Ki amounted to 222 nM.

The compound `COc1ncc(C(=O)N[C@@]2(C(=O)NCc3ccc(Nc4ccc(F)cc4C(F)(F)F)cc3)CCOC2)cn1` [(300)] gave a Ki of 45 nM. On to `Cc1ncc(C(=O)NC2(C(=O)NCc3ncc(Nc4ccccc4C(F)(F)F)cc3Cl)CC2)cn1` [(301)], for which affinity was put at a Ki of 1.1 nM. Compound `Cc1cncc(C(=O)NC2(C(=O)NCc3ccc(Nc4ccc(F)cc4C(F)(F)F)cn3)CC2)c1` [(302)] gave an inhibition constant Ki of 42 nM. As for `Cc1ncc(C(=O)NC2(C(=O)NCc3ccc(Nc4ccc(F)cc4C(F)(F)F)cn3)CC2)s1` [(303)], the figure is 82 nM; as for `CNc1ncc(C(=O)N[C@@]2(C(=O)NCc3ccc(Nc4ccc(F)cc4C(F)(F)F)cn3)CCOC2)cn1` [(304)], 135 nM. `CNc1cncc(C(=O)N[C@@]2(C(=O)NCc3ccc(Nc4ccc(F)cc4C(F)(F)F)cc3)CCOC2)c1` [(305)] showed a Ki of 76 nM. `Cc1cc(Nc2ccc(F)cc2C(F)(F)F)cnc1CNC(=O)C1(NC(=O)c2cncnc2)CC1` [(306)] returned a Ki of 2 nM. With `Cc1ncc(C(=O)N[C@@]2(C(=O)NCc3ccc(Nc4ccc(F)cc4C(F)(F)F)cn3)CCOC2)cn1` [(307)], the Ki was 54 nM. As for `Cc1cncc(C(=O)N[C@@]2(C(=O)NCc3ccc(Nc4ccc(F)cc4C(F)(F)F)cc3)CCOC2)c1` [(308)], affinity was put at a Ki of 427 nM.

`Nc1ccc(C(=O)N[C@@]2(C(=O)NCc3ccc(Nc4ccc(F)cc4C(F)(F)F)cc3)CCOC2)cn1` [(309)] displayed a Ki of 184 nM.

In the case of `CC(C)c1ncc(C(=O)N[C@@]2(C(=O)NCc3ccc(Nc4ccc(F)cc4C(F)(F)F)cc3)CCOC2)cn1` [(310)], the affinity, expressed as Ki, was 39 nM. For `CNc1cncc(C(=O)N[C@@]2(C(=O)NCc3ccc(Nc4ccc(F)cc4C(F)(F)F)cn3)CCOC2)c1` [(311)], the Ki turned out to be 349 nM. Regarding `Cc1ccc(C(=O)NC2(C(=O)NCc3ccc(Nc4ccc(Cl)cc4C(F)(F)F)cn3)CC2)cn1` [(312)], the inhibition constant (Ki) turned out to be 57 nM. In turn, `COc1cncc(C(=O)NC2(C(=O)NCc3ccc(Nc4ccc(Cl)cc4C(F)(F)F)cn3)CC2)c1` [(313)] had a Ki of 95 nM. As for `COc1ncc(C(=O)N[C@@]2(C(=O)NCc3ncc(Nc4ccc(Cl)cc4C(F)(F)F)cc3F)CCOC2)cn1` [(314)], the figure is 15 nM; as for `Cc1ccc(C(=O)NC2(C(=O)NCc3ccc(Nc4ccc(Br)cc4C(F)(F)F)cn3)CC2)cn1` [(315)], 40 nM. As for `COc1cncc(C(=O)NC2(C(=O)NCc3ccc(Nc4ccc(Br)cc4C(F)(F)F)cn3)CC2)c1` [(316)], the figure is 57 nM. Turning to `Cc1ncc(C(=O)N[C@@]2(C(=O)NCc3ccc(Nc4ccc(Cl)cc4C(F)(F)F)cc3)CCOC2)cn1` [(317)], the Ki was determined as 30 nM.

Compound `Nc1ccc(C(=O)N[C@@]2(C(=O)NCc3ccc(Nc4ccc(Cl)cc4C(F)(F)F)cc3)CCOC2)cn1` [(318)] came in with a Ki of 316 nM. As to `CNc1cncc(C(=O)N[C@@]2(C(=O)NCc3ncc(Nc4ccc(Cl)cc4C(F)(F)F)cc3F)CCOC2)c1` [(319)], the Ki turned out to be 58 nM. To `Nc1cncc(C(=O)N[C@@]2(C(=O)NCc3ncc(Nc4ccccc4C(F)(F)F)cc3F)CCOC2)c1` [(320)] belongs 19 nM. `Nc1cncc(C(=O)N[C@@]2(C(=O)NCc3ccc(Nc4ccc(Cl)cc4C(F)(F)F)cc3)CCOC2)c1` [(321)] showed a Ki of 57 nM.

The compound `CNc1ncc(C(=O)N[C@@]2(C(=O)NCc3ccc(Nc4ccc(Cl)cc4C(F)(F)F)cc3)CCOC2)cn1` [(323)] had an inhibition constant Ki of 69 nM.

In turn, `Cc1cc(Nc2ccc(F)cc2C(F)(F)F)cnc1CNC(=O)[C@]1(NC(=O)c2cncnc2)CCOC1` [(324)] showed a Ki of 22 nM.

In turn, `O=C(NC1(C(=O)NCc2ccc(Nc3c(F)cc(Br)cc3Cl)cn2)CC1)c1cncnc1` [(325)] registered a Ki of 374 nM.

Compound `O=C(NC1(C(=O)NCc2ccc(Nc3c(F)cccc3Br)cn2)CC1)c1cncnc1` [(326)] had a Ki of 504 nM. Compound `COc1ncc(C(=O)N[C@@]2(C(=O)NCc3ccc(Nc4ccc(F)cc4C(F)(F)F)cn3)CCOC2)cn1` [(327)] displayed a Ki of 89 nM.

The compound `CCNc1ncc(C(=O)N[C@@]2(C(=O)NCc3ccc(Nc4ccc(F)cc4C(F)(F)F)cc3)CCOC2)cn1` [(328)] yielded an inhibitory constant (Ki) of 33 nM.

`CCNc1ccc(C(=O)NC2(C(=O)NCc3ccc(Nc4ccc(Cl)cc4C(F)(F)F)cn3)CC2)cn1` [(329)] registered an inhibition constant (Ki) of 24 nM. Compound `CCCNc1ccc(C(=O)NC2(C(=O)NCc3ccc(Nc4ccc(Cl)cc4C(F)(F)F)cn3)CC2)cn1` [(330)] returned a Ki of 35 nM. To `O=C(N[C@@]1(C(=O)NCc2ncc(Nc3ccc(Cl)cc3C(F)(F)F)cc2F)CCOC1)c1cncc(O)c1` [(331)] belongs 66 nM. To `O=C(N[C@@]1(C(=O)NCc2ccc(Nc3ccc(Cl)cc3C(F)(F)F)cc2)CCOC1)c1cncnc1` [(332)] belongs 41 nM. As to `COc1ncc(C(=O)N[C@@]2(C(=O)NCc3ccc(Nc4ccc(Cl)cc4C(F)(F)F)cc3)CCOC2)cn1` [(333)], the affinity corresponds to a Ki of 89 nM.

In turn, `CCNc1ccc(C(=O)NC2(C(=O)NCc3ccc(Nc4ccc(Br)cc4C(F)(F)F)cn3)CC2)cn1` [(334)] gave a Ki of 20 nM.

In turn, `CCCNc1ccc(C(=O)NC2(C(=O)NCc3ccc(Nc4ccc(Br)cc4C(F)(F)F)cn3)CC2)cn1` [(335)] had an inhibition constant (Ki) of 28 nM. For `O=C(N[C@@]1(C(=O)NCc2ccc(Nc3ccc(Cl)cc3C(F)(F)F)cc2)CCOC1)c1cncs1` [(336)], the inhibition constant Ki came to 567 nM.

On to `COc1cncc(C(=O)N[C@@]2(C(=O)NCc3ccc(Nc4ccc(Cl)cc4C(F)(F)F)cc3)CCOC2)c1` [(337)], for which affinity was put at a Ki of 312 nM. `O=C(NC1(C(=O)NCc2ccc(Nc3ccc(F)cc3C(F)(F)F)cn2)CC1)c1cncc(Cl)c1` [(339)]: affinity was put at a Ki of 49 nM. Compound `O=C(NC1(C(=O)NCc2ccc(Nc3ccc(F)cc3C(F)(F)F)cn2)CC1)c1cncc(C(F)(F)F)c1` [(340)] displayed an inhibition constant Ki of 28 nM. Consider `Cc1ccc(C(=O)NC2(C(=O)NCc3ccc(Nc4ccc(F)cc4C(F)(F)F)cn3)CC2)cn1` [(341)], for which the inhibition constant (Ki) worked out at 69 nM.

In turn, `Cc1cc(Nc2ccc(F)cc2C(F)(F)F)cnc1CNC(=O)[C@]1(NC(=O)c2cncc(N)c2)CCOC1` [(342)] had an inhibitory constant (Ki) of 50 nM. The compound `CNc1ccc(C(=O)NC2(C(=O)NCc3ccc(Nc4ccc(Br)cc4C(F)(F)F)cn3)CC2)cn1` [(343)] showed a Ki of 7.2 nM. Regarding `Cc1ncc(C(=O)NC2(C(=O)NCc3ncc(Nc4ccc(F)cc4C(F)(F)F)cc3C)CC2)cn1` [(344)], the Ki is 1.9 nM. The compound `Cc1ncc(C(=O)N[C@@]2(C(=O)NCc3ncc(Nc4ccc(Cl)cc4C(F)(F)F)cc3C)CCOC2)cn1` [(345)] gave a Ki of 17 nM. Regarding `Cc1cc(Nc2ccc(Cl)cc2C(F)(F)F)cnc1CNC(=O)[C@]1(NC(=O)c2cncc(N)c2)CCOC1` [(346)], the affinity, expressed as Ki, was 48 nM. As for `CNc1ccc(C(=O)NC2(C(=O)NCc3ccc(Nc4ccc(Cl)cc4C(F)(F)F)cn3)CC2)cn1` [(347)], the figure is 12 nM. Turning to `Nc1ccc(C(=O)N[C@@]2(C(=O)NCc3ncc(Nc4ccc(F)cc4C(F)(F)F)cc3F)CCOC2)cn1` [(348)], the Ki was 31 nM.

`Nc1ccc(C(=O)N[C@@]2(C(=O)NCc3ccc(Nc4ccc(F)cc4C(F)(F)F)cn3)CCOC2)cn1` [(349)] yielded a Ki of 648 nM. Regarding `O=C(NC1(C(=O)NCc2ccc(Nc3ccc(Cl)cc3C(F)(F)F)cn2)CC1)c1cnc(O)nc1` [(350)], the affinity corresponds to a Ki of 43 nM. As for `O=C(NC1(C(=O)NCc2ccc(Nc3ccc(Cl)cc3C(F)(F)F)cn2)CC1)c1cncc(F)c1` [(351)], the figure is 24 nM; as for `O=C(NC1(C(=O)NCc2ccc(Nc3ccc(Cl)cc3C(F)(F)F)cn2)CC1)c1cncc(Cl)c1` [(352)], 59 nM; as for `Cc1cncc(C(=O)NC2(C(=O)NCc3ccc(Nc4ccc(Cl)cc4C(F)(F)F)cn3)CC2)c1` [(353)], 52 nM. Compound `O=C(NC1(C(=O)NCc2ccc(Nc3ccc(Cl)cc3C(F)(F)F)cn2)CC1)c1cncc(C(F)(F)F)c1` [(354)] showed an inhibitory constant (Ki) of 27 nM. In turn, `O=C(NC1(C(=O)NCc2ccc(Nc3ccc(Cl)cc3C(F)(F)F)cn2)CC1)c1ccnc(F)c1` [(355)] yielded an inhibition constant Ki of 433 nM. As for `COc1cc(C(=O)NC2(C(=O)NCc3ccc(Nc4ccc(Cl)cc4C(F)(F)F)cn3)CC2)on1` [(356)], the inhibition constant (Ki) is 22 nM. The compound `O=C(NC1(C(=O)NCc2ccc(Nc3ccc(Cl)cc3C(F)(F)F)cn2)CC1)c1ccns1` [(357)] displayed a Ki of 44 nM.
